Data as given in patent US20020028790A1, “Use of agonists or antagonists of P2 purinoceptors for the prevention glutamate-evoked cytotoxicity” (priority 1995, published 2002).

Key:
[1] = test system: cerebellar granule neurons; assay: Glutamate-evoked cytotoxicity in cerebellar granule primary cultures (cell survival by count of intact viable nuclei); format: cell-based; details: for cellular survival / abolition of the cytotoxic action of glutamate: 100 μM compound in the simultaneous presence of 100 μM glutamate (acute exposure); for total neuronal population protected from cell death: incubated for the next 20 hours
Text: Always according to the present invention, these compounds are used to prevent glutamate-evoked cytotoxicity in the nervous system's cells, particularly in CNS neurons. As a cellular model system for CNS neurons we have adopted postnatal rat cerebellar neurons. These cells, which are among the best characterized primary neuronal cultures, when isolated from postnatal rat cerebellum (Lasher R. S., and Zagon I. S., Brain Res. 41, 428-438, 1972), develop in vitro their mature phenotype as interneurons which use glutamate as a neurotransmitter and furthermore constitute an excellent model system for the study of glutamate-mediated cytotoxicity.
By exposing granule neurons to 100 μM glutamate for 15-30 min is obtained (after 15-20 hours) 80-100% of total cell death. […] The effects of basilen blue on cerebellar granule cell morphology reveal, despite the exposure to glutamate, which otherwise induces complete cell death, apparently healty-looking cell bodies that do bear a dense network of highly branching processes. Adhesion and neurites fasciculation are also preserved by basilen blue.
Basilen Blue prevents cytotoxicity induced by glutamate in cerebellar granule primary cultures: effects of dose-response and modality of addition. Replicate cerebellar granule cultures at 8 DIV were exposed for 25 min to 100 μM glutamate, in the simultaneous presence of different concentrations of basilen blue (FIG. 1). After 20 hours, the cultures were assessed for cultures were assessed for cell survival by direct count of intact viable nuclei. The asterisk represents the % of nuclei obtained after simultaneous addition to the cells of 100 μM glutamate and 100 μM caffeine. In FIG. 2, replicate cerebellar granule cultures at 8 DIV were exposed for 25 min to 100 μM glutamate. At different time after glutamate withdrawl, basilen blue (100 μM) was added to the medium until the cultures, 20 hours later, were assessed for cell survival by direct count of intact viable nuclei. The asterisk represents the % of nuclei obtained after simultaneous addition to the cells of 100 μM glutamate and 100 μM basilen blue. In FIG. 3, replicate cultures were pretreated in the presence of 100 μM basilen blue for different time, before the addition of 100 μM glutamate for 25 min (performed in the absence of basilen blue). After 20 hours the cultures were assessed for cell survival.
The asterisk represents the % of nuclei obtained after simultaneous addition to the cells of 100 μM glutamate and 100 μM basilen blue. Counts represent means±SEM (n=4) and 100% of cell survival represents 1.75−2×10^6 total cells.
METHODS. Approximately 20 hours after exposure of granule cells to glutamate, the culture medium was removed and replaced with 1 ml of a detergent-containing lysing solution (0.5% ethyl hexadecyl dimethyl—ammonium bromide, 0.28% acetic acid, 0.5% Triton X-100, 3 mM NaCl, 2 mM MgCl2, in PBS pH 7.4 diluted 1/10).
After 1-2 minutes, the cells were triturated a few times, providing a uniform uspension of single, intact viable nuclei. The latter were quantified by ounting in a hemacytometer. Broken or damaged nuclei were not included in the counts.
Culturing cerebellar granule cells in the presence of AMPPNP: modulation of glutamate-dependent cell death, Ca^++ uptake and aspartate release. Primary cerebellar granule cultures were prepared and starting at 1 DIV some of time were daily supplemented with 100 μM AMPPNP.(FIG. 6) At 8 DIV, after two washes, some of the cultures were incubated at 20° C. for 25 min with 100 μM glutamate. The following day, they were assessed for cell survival, as previously described.

[2] = test system: cerebellar granule neurons; assay: Glutamate-evoked Ca2+ uptake in cerebellar granule cells; format: cell-based, rat
Experimental: Glutamate-dependent neurotoxicity is often accompanied also in cerebellar granule neurons with increase in intracellular Ca^2+ via a multistep process. […] Also this value is in accordance with the IC50 found for inhibition of ATP binding, cytotoxicity and aspartate release. The basilen blue-dependent inhibition occurs when Ca^2+ uptake is measured for short (1 min) or for longer times (3, 10, and 25 min). The cronic exposure of granule neurons for 8 days to 100 μM AMPPNP inhibits by 50-70% glutamate-evoked Ca^2+ influx, similarly to the inhibition of cytotoxicity and aspartate release.
(§1) (FIG. 7) Replicate cerebellar granule cultures at 8 DIV were incubated for 1 min in Locke's solution in the presence of 45 Ca^++ (1 μCi/ml), with or without 100 μM glutamate, and were then assessed for Ca^++ influx. (FIG. 8) Replicate cerebellar granule cultures at 8 DIV were incubated for 5 min in Locke's solution, in the presence of [^3H] D-2,3 aspartic acid (1 μCi/ml, final concentration 40 nM) and were then assessed for aspartate release, in the presence or absence of 100 μM glutamate. Data are expressed as means±SEM (n=3).
(§2) Basilen Blue inhibits release of aspartate and uptake of Ca^++ induced by glutamate in cerebellar granule cells. (FIG. 9) Replicate cerebellar granule cultures at 8 DIV were incubated for 5 min in Locke's solution in the presence of [^3H] D-2,3 aspartic acid (1 μCi/ml, final concentration 40 nM). After two washes, the cultures were then incubated for 1 min in Locke's solution with or without 100 μM glutamate and in the presence of different concentrations of basilen blue. The buffer removed from the cultures during this release phase was collected into vials and counted for radioactivity. The asterisk represents the release of aspartate obtained in the simultaneous presence of 100 μM glutamate and 100 μM caffeine. Cells were dissolved in 0.1 M NaOH and protein concentrations were determined by the method of Bradford, with bovine serum albumin as standard. (FIG. 10) Replicate cerebellar granule cultures at 8 DIV were incubated for 1 min in Locke's solution in the presence of 45 Ca^++ (1 μCi/ml), with our without 100 μM glutamate, and in the simultaneous presence of different concentrations of basilen blue. After two washes with ice-cold 154 mM choline chloride, 2 mM EDTA, the cells were lysed in 0.1 M NaOH and aliquots were collected for measuring Ca^++ influx (by radioactive counting) and protein concentration. The asterisk represents the Ca^++ influx obtained in the simultaneous presence of 100 μM glutamate and 100 μM caffeine. Data are expressed as means±SEM (n=3).

[3] = test system: cerebellar granule neurons; assay: Glutamate-induced release of [3H] aspartate from cerebellar granule cells; format: cell-based, rat
Text: Since D-[^3H] aspartate release has been often used as a measure of the functional state of cerebellar granule neurons cultured in vitro and depolarization- or glutamate-evoked aspartate release is a feature progressively aquired by these cells along with neuronal maturation, we decided to test this parameter to further study the biological effects and possible mechanisms used by basilen blue in the prevention of cell death. We find that basilen blue inhibits glutamate-induced release of [^3H] aspartate with an IC50 of about 10 μM. […] Also a cronic exposure of granule neurons for 8 days to 100 μM AMPPNP inhibits by 70-80% the glutamate-evoked release of [^3H] aspartate.
as §1, §2

[4] = test system: cerebellar granule neurons; assay: Uptake of [3H] aspartate by cerebellar granule cultures; format: cell-based, rat; details: same basilen blue treatments as for cytotoxicity
Experimental: The effects of basilen blue on protection from cytotoxicity are linear with time and depend on the modality of somministration of the compound. When basilen blue is added to the cells 10 min after glutamate, and then incubated with granule neurons for only 15 min, it protects from cell death 60-70% of the entire neuronal population; if somministered only for the last 5 min of treatment of the cells with glutamate, basilen blue sustains survival of 25-40% of total neurons. When instead it is added 1-2 min or 30 min or 2 hours after exposure of granule neurons to glutamate (and then incubated with the cells for the next 20 hours) basilen blue protects from cell death respectively 55-70%, 30% and 10% of the total neuronal population. When it is added before (not during or after) exposure of granule neurons to glutamate, basilen blue requires a pretreatment of at least 20-25 hours in order to prevent by 70-80% the cytotoxic action of glutamate. Inhibition of aspartate uptake is not obtained as a consequence of these same treatments.
Basilen Blue inhibits binding of ATP to cerebellar granule cell membranes, but to uptake of aspartate. […] After two washes, cells were dissolved in 0.1 M NaOH and counted for incorporated radioactivity by liquid scintillation counting. […] Protein concentrations were determined by the method of Bradford with ovine serum albumin as standard.

[5] = test system: membranes of granule neurons ([3H] ATP binding); assay: Binding of [3H] ATP to cerebellar granule cell membranes; design: species or system rat; details: 1 h at 4° C, read-out: IC50 for inhibition of binding of [3H] ATP to membranes
Experimental: (§3) Basilen blue inhibits binding of [^3H] ATP to membranes of granule neurons with an IC50 of about 10 μM, that corresponds to the IC50 that prevents glutamate-evoked cytotoxicity. Binding studies with [^3H]
Basilen Blue inhibits binding of ATP to cerebellar granule cell membranes, but to uptake of aspartate. Membranes were prepared from 8 DIV cerebellar granule ells and 20 μg of protein were incubated with [^3H] ATP (0.5 μCi/ml, final concentration […]) (FIG. 4), in the presence of different concentrations of basilen blue, for 1 h at 4° C. Specific binding is shown and counts represent means±SEM (n=3). The asterisk represents the binding performed in the presence of 100 μM caffeine. In FIG. 5, replicate cerebellar granule cultures at 8 DIV were washed wice and incubated for different times in Locke's solution with [^3H] […] After two washes, cells were dissolved in 0.1 M NaOH and counted for incorporated radioactivity by liquid scintillation counting. […] Protein concentrations were determined by the method of Bradford with ovine serum albumin as standard.
METHODS. […] ATP, the samples (1 ml) were vacuum-filtered through Whatman GF/B glass fiber filters and the filters were immediately washed (3×4 s) with 5 ml of 50 mM Tris-HCl (pH 7.4), air dried and assessed for specifically bound radioactivity by liquid scintillation counting.

[6] = test system: intact cells (granule neurons, [3H] ATP binding); assay: Binding of [3H] ATP to intact cells; design: species or system rat
Experimental: as §3

[7] = chronic exposure for 8 days to 100 μM

With `Nc1ncnc2c1ncn2C1OC(COP(=O)(O)OP(=O)(O)NP(=O)(O)O)C(O)C1O` (stereo not drawn) [AMPPNP, 5-adenylylimidodiphosphate] the “cellular survival / abolition of the cytotoxic action of glutamate” value [1] was “not effective”, the “inhibition of glutamate-induced cytotoxicity” value ([1]; cells cultured in continuous presence of 100 μM compound from day 1 (not later than day 2) in vitro) was 50-60% and the “inhibition of glutamate-evoked Ca2+ influx” value [2, 7] was 50-70%. For the same compound, the “inhibition of glutamate-evoked release of [3H] aspartate” value [3, 7] was 70-80%.
With `Cn1c(=O)c2c(ncn2C)n(C)c1=O` [Caffeine] the “abolition of the cytotoxic action of glutamate” value ([1]; up to 100 μM) was “does not abolish”.
With `Nc1c(S(=O)(=O)O)cc(Nc2ccc(Nc3nc(Cl)nc(Nc4ccccc4S(=O)(=O)O)n3)c(S(=O)(=O)O)c2)c2c1C(=O)c1ccccc1C2=O` [cibacron blue, Cibacron Blue 3GA] the “prevention of glutamate-evoked cell death (in words)” value [1] was “effective”.
For Basilen Blue E 3G, the “cellular survival / abolition of the cytotoxic action of glutamate” value [1] was “completely sustains cellular survival”, the IC50 ([1]; 100 μM glutamate, compound present simultaneously, read-out: IC50 for prevention of glutamate-evoked cell death) was 10 to 20 µM and the “total neuronal population protected from cell death” value (“total neuronal population protected” for short) ([1]; added 1-2 min after exposure to glutamate) was 55-70%. The “neuronal population protected from cell death” value ([1]; added 10 min after glutamate, then incubated with neurons for only 15 min) was 60-70%, the “total neuronal population protected” value ([1]; added 30 min after exposure to glutamate) was 30% and the “total neuronal population protected” value ([1]; added 2 hours after exposure to glutamate) was 10%. For the same compound, the “adhesion and neurites fasciculation” value ([1]; despite exposure to glutamate, 100 μM basilen blue) was “preserved”, the “survival of total neurons” value ([1]; given only for the last 5 min of glutamate treatment) was 25-40% and the “acute response (rapid swelling of the cell body and loss of brightness)” value ([1]; within the first 5 min of treatment with glutamate, basilen blue added) was “prevented”. For the same compound, the “inhibition of aspartate uptake” value [4] was “not obtained”, the IC50 [5] was ~10 µM and the IC50 ([2]; 100 μM glutamate, read-out: IC50 for inhibition of glutamate-evoked Ca2+ uptake) was ~10 µM. For the same compound, the “extent of inhibition of glutamate-evoked Ca2+ uptake” value ([2]; uptake measured for 1, 3, 10 and 25 min) was “almost completely abolishes”, the “basal Ca2+ uptake” value ([2]; without glutamate) was “not basal” and the IC50 ([3]; 100 μM glutamate, read-out: IC50 for inhibition of glutamate-induced release of [3H] aspartate) was ~10 µM. The “extent of inhibition of glutamate-induced [3H] aspartate release” value ([3]; release measured for 1, 3, 10, 25 min or in presence of Mg2+) was “almost complete”, the “basal release of [3H] aspartate” value ([3]; without glutamate) was “does not affect” and the “inhibition of [3H] ATP binding to intact cells” value [6] was “as effective”.
